In patent publication US7655629B2, “Peptides and their use for the treatment of HIV infections” (priority 2002, dated 2010):
Positions of bridges follow the written chain, without caps; N, C: chain ends. Non-standard residues stand in square brackets, D forms with d. Residues, ends and D or L forms follow the SMILES beside them.

System: X4-tropic HIV-1 NL4-3
Details: read-out: IC50 NL4-3; P4-CCR5 cells, HIV-1 NL4-3, peptide 2 h before infection, readout three days after infection
Excerpt: These cells contain the β-galactosidase reporter gene under the control of the HIV-1 promoter. Thus, activation of the β-galactosidase reporter gene allows to measure the efficiency of HIV-1 infection and thus to quantitate the potency of HIV-1 inhibitors (Detheux M. et al., 2000; Journal of Experimental Medicine 192, 1501-1508; Münch et al., 2002; Antimicrobial Agents and Chemotherapy 46, 982-990).
To perform a typical infection assay, P4-CCR5 cells (Charneau et al., 1994; Journal of Molecular Biology 241, 651-662; Charneau et al., Virology. 1994 205, 247-53) were kept in RPMI 1640 medium supplemented with 10 volume % FCS. This cell line coexpresses CD4 and both HIV-1 coreceptors CCR5 and CXCR4 and contains the β-galactosidase gene under the control of the HIV-1 promoter. Virus stocks were generated by the calcium coprecipitation method as described (Detheux et al., J Exp Med. 192:1501-8; 2000), and the p24 antigen levels were quantitated with an HIV p24 ELISA kit obtained through the NIH AIDS Reagent Program. Cells were seeded in flat-bottomed 96-well dishes, cultured overnight, and incubated with the different doses of peptide for 2 h before infection with virus containing 1 ng of p24 antigen in a total volume of […] of medium. After overnight incubation, cells were washed twice and cultivated in fresh culture medium without inhibitory peptide. Three days after infection the cells were lysed, and infectivity was quantitated using the Galacto-Light Plus™ chemiluminescence reporter assay kit (Tropix, Bedford, Mass.) as recommended by the manufacturer. All infections were performed in quintuplicate.

SMILES	IC50 [nM]
CC[C@H](C)[C@H](NC(=O)[C@H](C)NC(=O)[C@H](CCC(=O)O)NC(=O)[C@@H](N)CC(C)C)C(=O)N1CCC[C@H]1C(=O)N[C@@H](CCSC)C(=O)NCC(=O)N[C@H](C(=O)N1CCC[C@H]1C(=O)N1CCC[C@@H]1C(=O)N[C@@H](CCC(=O)O)C(=O)N[C@@H](Cc1ccccc1)C(=O)N[C@@H](CC(C)C)C(=O)N[C@@H](Cc1ccccc1)C(=O)NCC(=O)N[C@@H](CCCCN)C(=O)N1CCC[C@H]1C(=O)N[C@@H](Cc1ccccc1)C(=O)N[C@H](C(=O)N[C@@H](Cc1ccccc1)C(=O)O)C(C)C)[C@@H](C)CC [VIR-416, LEAIPMGIPpEFLFGKPFVF] (H-LEAIPMGIP[dP]EFLFGKPFVF-OH)	369
CC[C@H](C)[C@H](NC(=O)[C@H](C)NC(=O)[C@H](CCC(=O)O)NC(=O)[C@@H](N)CC(C)C)C(=O)N1CCC[C@H]1C(=O)N[C@@H](CCSC)C(=O)N[C@@H](CO)C(=O)N[C@H](C(=O)N1CCC[C@H]1C(=O)N1CCC[C@@H]1C(=O)N[C@@H](CCC(=O)O)C(=O)N[C@@H](Cc1ccccc1)C(=O)N[C@@H](CC(C)C)C(=O)N[C@@H](Cc1ccccc1)C(=O)NCC(=O)N[C@@H](CCCCN)C(=O)N1CCC[C@H]1C(=O)N[C@@H](C)C(=O)N[C@@H](Cc1ccccc1)C(=O)N[C@H](C(=O)N[C@@H](Cc1ccccc1)C(=O)O)C(C)C)[C@@H](C)CC [VIR-376, LEAIPMSIPpEFLFGKPAFVF] (H-LEAIPMSIP[dP]EFLFGKPAFVF-OH)	568
CC[C@H](C)[C@H](NC(=O)[C@@H]1CCCN1C(=O)[C@@H](NC(=O)[C@H](C)NC(=O)[C@H](CCC(=O)O)NC(=O)[C@@H](N)CC(C)C)[C@@H](C)CC)C(=O)N[C@@H](CO)C(=O)N[C@H](C(=O)N1CCC[C@H]1C(=O)N1CCC[C@@H]1C(=O)N[C@@H](CCC(=O)O)C(=O)N[C@H](C(=O)N[C@@H](Cc1ccccc1)C(=O)N[C@@H](Cc1ccccc1)C(=O)NCC(=O)N[C@@H](CCCCN)C(=O)N1CCC[C@H]1C(=O)N[C@@H](Cc1ccccc1)C(=O)N[C@H](C(=O)N[C@@H](Cc1ccccc1)C(=O)O)C(C)C)C(C)C)[C@@H](C)CC [VIR-290, LEAIPISIPpEVFFGKPFVF] (H-LEAIPISIP[dP]EVFFGKPFVF-OH)	562
CC[C@H](C)[C@H](NC(=O)[C@H](C)NC(=O)[C@H](CCC(=O)O)NC(=O)[C@@H](N)CC(C)C)C(=O)N1CCC[C@H]1C(=O)N[C@@H](CCSC)C(=O)NCC(=O)N[C@H](C(=O)N1CCC[C@H]1C(=O)N1CCC[C@@H]1C(=O)N[C@@H](CCC(=O)O)C(=O)N[C@H](C(=O)N[C@@H](Cc1ccccc1)C(=O)N[C@@H](Cc1ccccc1)C(=O)NCC(=O)N[C@@H](CCCCN)C(=O)N1CCC[C@H]1C(=O)N[C@@H](Cc1ccccc1)C(=O)N[C@H](C(=O)N[C@@H](Cc1ccccc1)C(=O)O)C(C)C)C(C)C)[C@@H](C)CC [VIR-320, LEAIPMGIPpEVFFGKPFVF] (H-LEAIPMGIP[dP]EVFFGKPFVF-OH)	277
CC[C@H](C)[C@H](NC(=O)[C@H](C)NC(=O)[C@H](CCC(=O)O)NC(=O)[C@@H](N)CC(C)C)C(=O)N1CCC[C@H]1C(=O)N[C@H]1CSSC[C@@H](C(=O)N[C@@H](CC(C)C)C(=O)N[C@@H](C)C(=O)N[C@@H](Cc2ccccc2)C(=O)N[C@@H](C)C(=O)N[C@@H](CCCCN)C(=O)N2CCC[C@H]2C(=O)N[C@@H](Cc2ccccc2)C(=O)N[C@H](C(=O)N[C@@H](Cc2ccccc2)C(=O)O)C(C)C)NC(=O)[C@@H]2CCCN2C(=O)[C@@H]2CCCN2C(=O)[C@H]([C@@H](C)CC)NC(=O)[C@H](CO)NC1=O [VIR-346] (H-LEAIPCSIPPCLAFAKPFVF-OH; disulfide 6-11)	541
CC[C@H](C)[C@H](NC(=O)[C@H](C)NC(=O)[C@H](CCC(=O)O)NC(=O)[C@@H](N)CC(C)C)C(=O)N1CCC[C@H]1C(=O)N[C@@H](CCSC)C(=O)N[C@@H](CO)C(=O)N[C@H](C(=O)N1CCC[C@H]1C(=O)N1CCC[C@@H]1C(=O)N[C@@H](CCC(=O)O)C(=O)N[C@@H](Cc1ccccc1)C(=O)N[C@@H](CC(C)C)C(=O)N[C@@H](Cc1ccccc1)C(=O)NCC(=O)N[C@@H](CCCCN)C(=O)N1CCC[C@H]1C(=O)N[C@@H](Cc1ccccc1)C(=O)N[C@@H](Cc1ccccc1)C(=O)N[C@H](C(=O)N[C@@H](Cc1ccccc1)C(=O)O)C(C)C)[C@@H](C)CC [VIR-380, LEAIPMSIPpEFLFGKPFFVF] (H-LEAIPMSIP[dP]EFLFGKPFFVF-OH)	540
CC[C@H](C)[C@H](NC(=O)[C@H](C)NC(=O)[C@H](CCC(=O)O)NC(=O)[C@@H](N)CC(C)C)C(=O)N1CCC[C@H]1C(=O)N[C@H]1CSSC[C@@H](C(=O)N[C@@H](CC(C)C)C(=O)N[C@@H](Cc2ccccc2)C(=O)NCC(=O)N[C@@H](CCCCN)C(=O)N2CCC[C@H]2C(=O)N[C@@H](Cc2ccccc2)C(=O)N[C@H](C(=O)N[C@@H](Cc2ccccc2)C(=O)O)C(C)C)NC(=O)[C@H](CCC(=O)O)NC(=O)[C@@H]2CCCN2C(=O)[C@@H]2CCCN2C(=O)[C@H]([C@@H](C)CC)NC(=O)[C@H](CO)NC1=O [VIR-570] (H-LEAIPCSIPPECLFGKPFVF-OH; disulfide 6-12)	231
CC[C@H](C)[C@H](NC(=O)[C@H](CCCCN)NC(=O)[C@H](CCC(=O)O)NC(=O)[C@@H](N)CC(C)C)C(=O)N1CCC[C@H]1C(=O)N[C@@H](CCSC)C(=O)NCC(=O)N[C@H](C(=O)N1CCC[C@H]1C(=O)N1CCC[C@@H]1C(=O)N[C@@H](CCC(=O)O)C(=O)N[C@@H](Cc1ccccc1)C(=O)N[C@@H](CC(C)C)C(=O)N[C@@H](Cc1ccccc1)C(=O)NCC(=O)N[C@@H](CCCCN)C(=O)N1CCC[C@H]1C(=O)N[C@@H](Cc1ccccc1)C(=O)N[C@H](C(=O)N[C@@H](Cc1ccccc1)C(=O)O)C(C)C)[C@@H](C)CC [VIR-418, LEKIPMGIPpEFLFGKPFVF] (H-LEKIPMGIP[dP]EFLFGKPFVF-OH)	500
CC[C@H](C)[C@H](NC(=O)[C@H](C)NC(=O)[C@H](CCC(=O)O)NC(=O)[C@@H](N)CC(C)C)C(=O)N1CCC[C@H]1C(=O)N[C@@H](CCSC)C(=O)NCC(=O)N[C@H](C(=O)N1CCC[C@H]1C(=O)N1CCC[C@@H]1C(=O)N[C@@H](CCC(=O)O)C(=O)N[C@H](C(=O)N[C@@H](Cc1c[nH]c2ccccc12)C(=O)N[C@@H](Cc1ccccc1)C(=O)N[C@@H](CC(N)=O)C(=O)N[C@@H](CCCCN)C(=O)N1CCC[C@H]1C(=O)N[C@@H](Cc1ccccc1)C(=O)N[C@H](C(=O)N[C@@H](Cc1ccccc1)C(=O)O)C(C)C)C(C)C)[C@@H](C)CC [VIR-328, LEAIPMGIPpEVWFNKPFVF] (H-LEAIPMGIP[dP]EVWFNKPFVF-OH)	685
CC[C@H](C)[C@H](NC(=O)[C@H](CC(=O)O)NC(=O)[C@H](CCC(=O)O)NC(=O)[C@@H](N)CC(C)C)C(=O)N1CCC[C@H]1C(=O)N[C@@H](CCSC)C(=O)NCC(=O)N[C@H](C(=O)N1CCC[C@H]1C(=O)N1CCC[C@@H]1C(=O)N[C@@H](CCC(=O)O)C(=O)N[C@H](C(=O)N[C@@H](C)C(=O)N[C@@H](Cc1ccccc1)C(=O)N[C@@H](CC(N)=O)C(=O)N[C@@H](CCCCN)C(=O)N1CCC[C@H]1C(=O)N[C@@H](Cc1ccccc1)C(=O)N[C@H](C(=O)N[C@@H](Cc1ccccc1)C(=O)O)C(C)C)C(C)C)[C@@H](C)CC [VIR-326, LEDIPMGIPpEVAFNKPFVF] (H-LEDIPMGIP[dP]EVAFNKPFVF-OH)	963
